Patent US8022206B2 (OSI Pharmaceuticals, LLC, priority 2008, dated 2011)
Like-named read-outs stand apart in the source and are kept apart here.

Assays:
MET (human) = MET (human) (Homo sapiens, UniProt P08581); assay: MET (human) AlphaScreen kinase assay, Km of ATP; type: biochemical
Outline: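 Human MET at lot-optimised concentration in 50 mM Tris pH 7.4 buffer with 1 mM DTT, compound at 1% DMSO final; enzyme starts the reaction, 60 min at RT.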

RON (human) = RON (human) (Homo sapiens, UniProt Q04912); assay: RON (human) AlphaScreen kinase assay, Km of ATP; type: biochemical
Chain of RON (human) (Q04912 25-1400): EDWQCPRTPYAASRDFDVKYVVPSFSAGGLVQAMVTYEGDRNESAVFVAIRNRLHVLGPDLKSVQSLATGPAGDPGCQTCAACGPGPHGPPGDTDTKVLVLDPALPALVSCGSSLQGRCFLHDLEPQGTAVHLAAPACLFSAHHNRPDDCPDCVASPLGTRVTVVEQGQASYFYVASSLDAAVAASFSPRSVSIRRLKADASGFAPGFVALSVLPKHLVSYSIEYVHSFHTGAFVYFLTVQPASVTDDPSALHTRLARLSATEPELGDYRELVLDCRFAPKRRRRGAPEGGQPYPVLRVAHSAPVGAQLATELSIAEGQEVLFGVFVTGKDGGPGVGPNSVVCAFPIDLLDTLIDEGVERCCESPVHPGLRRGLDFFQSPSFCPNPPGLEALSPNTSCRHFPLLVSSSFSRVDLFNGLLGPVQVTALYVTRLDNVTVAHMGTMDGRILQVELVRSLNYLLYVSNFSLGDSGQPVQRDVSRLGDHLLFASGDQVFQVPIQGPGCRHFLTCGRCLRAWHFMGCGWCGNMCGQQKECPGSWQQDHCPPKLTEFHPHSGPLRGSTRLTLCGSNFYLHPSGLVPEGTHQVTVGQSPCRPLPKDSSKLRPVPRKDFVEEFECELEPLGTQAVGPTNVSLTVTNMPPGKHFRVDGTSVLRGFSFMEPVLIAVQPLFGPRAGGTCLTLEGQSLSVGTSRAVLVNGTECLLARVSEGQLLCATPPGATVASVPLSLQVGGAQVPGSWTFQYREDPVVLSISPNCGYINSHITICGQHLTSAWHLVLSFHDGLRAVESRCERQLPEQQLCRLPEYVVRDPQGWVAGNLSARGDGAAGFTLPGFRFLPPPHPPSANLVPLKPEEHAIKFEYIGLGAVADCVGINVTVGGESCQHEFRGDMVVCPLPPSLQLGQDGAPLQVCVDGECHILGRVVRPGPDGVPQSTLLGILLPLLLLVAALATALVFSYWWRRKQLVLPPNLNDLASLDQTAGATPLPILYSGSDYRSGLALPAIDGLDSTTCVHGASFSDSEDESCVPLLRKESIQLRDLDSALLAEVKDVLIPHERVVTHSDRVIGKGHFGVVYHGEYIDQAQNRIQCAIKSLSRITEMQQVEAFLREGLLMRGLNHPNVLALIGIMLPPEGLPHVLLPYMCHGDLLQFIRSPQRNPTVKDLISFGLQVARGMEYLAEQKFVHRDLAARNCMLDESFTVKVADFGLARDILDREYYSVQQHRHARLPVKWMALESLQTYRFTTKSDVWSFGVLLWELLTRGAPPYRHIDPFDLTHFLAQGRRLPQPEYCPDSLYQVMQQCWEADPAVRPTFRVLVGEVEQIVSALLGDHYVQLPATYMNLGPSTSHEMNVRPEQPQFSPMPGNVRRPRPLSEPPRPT
Outline: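 Detection used PT66 AlphaScreen beads added in Tris pH 7.5/NaCl/EDTA/BSA buffer, read after 1 h incubation. Vehicle-only DMSO wells served as controls.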

[1] = AlphaScreen, Km of ATP, read-out: Met biochemical IC50
[2] = AlphaScreen, Km of ATP, read-out: RON biochemical IC50

Chain of MET (human) (P08581 25-1390): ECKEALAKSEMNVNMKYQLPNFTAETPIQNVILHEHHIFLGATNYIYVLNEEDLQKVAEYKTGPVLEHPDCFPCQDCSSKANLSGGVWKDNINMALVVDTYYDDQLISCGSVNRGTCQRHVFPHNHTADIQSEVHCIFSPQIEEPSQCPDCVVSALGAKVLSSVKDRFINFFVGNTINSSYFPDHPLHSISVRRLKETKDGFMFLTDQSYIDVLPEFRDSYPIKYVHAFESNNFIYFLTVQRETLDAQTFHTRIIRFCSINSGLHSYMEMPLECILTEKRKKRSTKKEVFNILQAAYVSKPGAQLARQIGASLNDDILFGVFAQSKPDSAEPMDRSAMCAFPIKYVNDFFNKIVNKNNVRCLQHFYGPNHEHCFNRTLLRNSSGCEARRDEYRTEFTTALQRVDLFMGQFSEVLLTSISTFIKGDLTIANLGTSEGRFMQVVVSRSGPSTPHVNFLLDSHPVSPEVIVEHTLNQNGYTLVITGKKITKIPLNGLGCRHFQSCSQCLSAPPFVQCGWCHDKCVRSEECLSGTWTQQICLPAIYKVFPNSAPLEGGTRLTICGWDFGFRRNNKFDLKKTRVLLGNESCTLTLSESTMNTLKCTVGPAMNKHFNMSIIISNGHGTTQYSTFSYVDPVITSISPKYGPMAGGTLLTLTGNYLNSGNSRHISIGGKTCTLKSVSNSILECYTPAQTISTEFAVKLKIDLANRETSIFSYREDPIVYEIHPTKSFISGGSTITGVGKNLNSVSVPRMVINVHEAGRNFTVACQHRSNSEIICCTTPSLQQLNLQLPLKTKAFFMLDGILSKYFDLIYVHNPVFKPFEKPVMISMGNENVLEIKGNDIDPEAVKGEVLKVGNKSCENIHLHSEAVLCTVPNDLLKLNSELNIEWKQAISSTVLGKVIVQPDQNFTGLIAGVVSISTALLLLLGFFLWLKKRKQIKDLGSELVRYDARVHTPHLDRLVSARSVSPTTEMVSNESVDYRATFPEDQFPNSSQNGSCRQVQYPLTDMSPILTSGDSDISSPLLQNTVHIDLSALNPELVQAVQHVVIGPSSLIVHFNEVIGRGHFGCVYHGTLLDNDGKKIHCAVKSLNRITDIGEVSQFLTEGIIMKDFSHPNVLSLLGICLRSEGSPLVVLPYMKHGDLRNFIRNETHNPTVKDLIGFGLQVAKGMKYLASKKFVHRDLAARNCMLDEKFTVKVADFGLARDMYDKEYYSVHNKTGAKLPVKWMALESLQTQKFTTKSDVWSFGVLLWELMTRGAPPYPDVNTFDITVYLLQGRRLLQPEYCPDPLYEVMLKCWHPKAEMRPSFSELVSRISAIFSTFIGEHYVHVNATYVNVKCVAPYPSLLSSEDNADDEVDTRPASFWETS

**Q.** With `C[C@@H]1CN(C(=O)CN2CC=C(c3coc4c(O[C@H](C)c5c(Cl)ccc(F)c5Cl)c(N)ncc34)CC2)C[C@H](C)O1` (relative stereo) [Example 204, 2-(4-{6-Amino-7-[(R)-1-(2,6-dichloro-3-fluorophenyl)ethoxy]-furo[3,2-c]pyridin-3-yl}-3,6-dihydro-2H-pyridin-1-yl)-1-((2R*,6S*)-2,6-dimethylmorpholin-4-yl)ethanone] as the molecule, how does the IC50 (MET (human); [1]) read?
**A.** < 500 nM

**Q.** And the IC50 (RON (human); [2])?
**A.** 500 to 5000 nM

**Q.** How did the IC50 (MET (human); [1]) turn out when `C[C@@H](Oc1c(N)ncc2c(-c3csc(CN4CCCC4)c3)coc12)c1c(Cl)ccc(F)c1Cl` [Example 308, 7-[(R)-1-(2,6-Dichloro-3-fluorophenyl)ethoxy]-3-(5-pyrrolidin-1-ylmethylthiophen-3-yl)furo[3,2-c]pyridin-6-ylamine] was run?
**A.** < 500 nM

**Q.** And the IC50 (RON (human); [2])?
**A.** < 500 nM

**Q.** With `C[C@@H](Oc1c(N)ncc2c(C3=CCN(C(=O)N4CCN(C(C)(C)C)CC4)CC3)coc12)c1c(Cl)ccc(F)c1Cl` [Example 29, (4-{6-Amino-7-[(R)-1-(2,6-dichloro-3-fluorophenyl)-ethoxy]-furo[3,2-c]pyridin-3-yl}-3,6-dihydro-2H-pyridin-1-yl)-(4-tert-butylpiperazin-1-yl)-methanone] as the molecule, how does the IC50 (MET (human); [1]) read?
**A.** < 500 nM

**Q.** And the IC50 (RON (human); [2])?
**A.** < 500 nM

**Q.** Which results are given for `CC(Oc1c(N)ncc2c(-c3cnn(C4CCNCC4)c3)coc12)c1ccccc1OC(F)(F)F` (stereo not shown) [Example 354, 3-(1-Piperidin-4-yl-1H-pyrazol-4-yl)-7-[1-(2-trifluoromethoxy-phenyl)ethoxy]furo[3,2-c]pyridin-6-ylamine]?
**A.** IC50 (MET (human); [1]): 500 to 5000 nM; IC50 (RON (human); [2]): 500 to 5000 nM

**Q.** Which IC50 (MET (human); [1]) does the source give for `C[C@@H](Oc1c(N)ncc2c(-c3ccc(CN4CCC4)s3)coc12)c1c(Cl)ccc(F)c1Cl` [Example 220, 3-(5-Azetidin-1-ylmethylthiophen-2-yl)-7-[(R)-1-(2,6-dichloro-3-fluorophenyl)ethoxy]furo[3,2-c]pyridin-6-ylamine] here?
**A.** < 500 nM

**Q.** And the IC50 (RON (human); [2])?
**A.** < 500 nM

**Q.** Which IC50 (MET (human)) does the source give for `C[C@@H](Oc1c(N)ncc2c(-c3ccc(C(=O)N4CCC(=O)CC4)cc3)coc12)c1c(Cl)ccc(F)c1Cl` [Example 284, 1-(4-{6-Amino-7-[(R)-1-(2,6-dichloro-3-fluorophenyl)-ethoxy]furo[3,2-c]pyridin-3-yl}benzoyl)piperidin-4-one] here?
**A.** 500 to 5000 nM

**Q.** And the IC50 (RON (human))?
**A.** 500 to 5000 nM

**Q.** With `C[C@H](Oc1c(N)ncc2c(-c3cnn(C4CCNCC4)c3)coc12)c1nnc2ccc(-c3ccccc3)nn12` [Example 478, 7-[(1S)-1-(6-phenyl[1,2,4]triazolo[4,3-b]pyridazin-3-yl)ethoxy]-3-[1-(piperidin-4-yl)-1H-pyrazol-4-yl]furo[3,2-c]pyridin-6-amine] as the molecule, how does the IC50 (MET (human); [1]) read?
**A.** 500 to 5000 nM

**Q.** What about the IC50 (RON (human); [2]) of the same molecule?
**A.** > 20000 nM

**Q.** What does the source list for `C[C@@H](Oc1c(N)ncc2c(C3=CCN(C(=O)[C@@H](O)c4ccccc4)CC3)coc12)c1c(Cl)ccc(F)c1Cl` [Example 265, (2S)-1-[4-{6-Amino-7-[(1R)-1-(2,6-dichloro-3-fluorophenyl)ethoxy]furo[3,2-c]pyridin-3-yl}-3,6-dihydropyridin-1(2H)-yl]-2-hydroxy-2-phenylethanone]?
**A.** IC50 (MET (human); [1]): 500 to 5000 nM; IC50 (RON (human); [2]): < 500 nM

**Q.** How did the IC50 (MET (human); [1]) turn out when `C[C@@H](Oc1c(N)ncc2c(C3=CCN(S(=O)(=O)c4ccccc4)CC3)coc12)c1c(Cl)ccc(F)c1Cl` [Example 49, 3-(1-Benzenesulfonyl-1,2,3,6-tetrahydropyridin-4-yl)-7-[(R)-1-(2,6-dichloro-3-fluorophenyl)-ethoxy]-furo[3,2-c]pyridin-6-ylamine] was run?
**A.** 500 to 5000 nM

**Q.** What about the IC50 (RON (human); [2]) of the same molecule?
**A.** 500 to 5000 nM

**Q.** Which results are given for `CC(Cc1c(F)cccc1Cl)Oc1c(N)ncc2c(-c3cnn(C4CCNCC4)c3)coc12` (stereo not shown) [Example 419, 7-[2-(2-Chloro-6-fluorophenyl)-1-methylethoxy]-3-(1-piperidin-4-yl-1H-pyrazol-4-yl)furo[3,2-c]pyridin-6-ylamine]?
**A.** IC50 (MET (human); [1]): 500 to 5000 nM; IC50 (RON (human); [2]): 500 to 5000 nM

**Q.** With `C[C@@H](Oc1c(N)ncc2c(C3=CCOCC3)coc12)c1c(Cl)ccc(F)c1Cl` [Example 138, 7-[(R)-1-(2,6-Dichloro-3-fluorophenyl)-ethoxy]-3-(3,6-dihydro-2H-pyran-4-yl)-furo[3,2-c]pyridin-6-ylamine] as the molecule, how does the IC50 (MET (human); [1]) read?
**A.** < 500 nM

**Q.** What about the IC50 (RON (human); [2]) of the same molecule?
**A.** 500 to 5000 nM
